Data published in patent publication US8124582B2, “Treatment of diabetes” (FibroGen, Inc., priority 2002, dated 2012).

Key:
[1] = tested on: inducible nitric oxide synthase (iNOS); assay: In vivo iNOS mRNA expression (quantitative PCR); set-up: species or system Swiss Webster male mice; details: mice, oral gavage; within 8 hours following treatment, then returned to control levels; normalized to 18S rRNA; FIG. 10A
Method: To determine gene induction patterns over time, twenty four Swiss Webster male mice (30-32 g) were obtained from Simonsen, Inc. and treated by oral gavage with a 4 ml/kg volume of either 0.5% carboxymethyl cellulose (CMC; Sigma-Aldrich, St. Louis Mo.) (0 mg/kg/day) or […] compound B (25 mg/ml in 0.5% CMC) (100 mg/kg). At 4, 8, 16, 24, 48, or 72 hours after the final dose, animals were anesthetized with isoflurane. The mice were then sacrificed and tissue samples of kidney, liver, brain, lung, and heart were isolated and stored in RNALATER solution (Ambion) at −80° C.
To investigate the dose response of compounds of the present invention, twelve Swiss Webster male mice (30-32 g) (obtained from Simonsen, Inc., Gilroy Calif.) were treated by oral gavage once per day for 4 days with a 4 ml/kg volume of either 0.5% carboxymethyl cellulose (CMC; Sigma-Aldrich, St. Louis Mo.), compound D (25 mg/ml in 0.5% CMC) (100 mg/kg/day), or compound B (7.5 and 25 mg/ml in 0.5% CMC) (30 and 100 mg/kg/day, respectively). Four hours after the final dose, animals were anesthetized, sacrificed, and approximately 150 mg of liver and each kidney were isolated and stored in RNALATER solution (Ambion) at −20° C.
Hypertension is a risk factor for diabetes and disorders and diseases associated with diabetes. The effects of compounds of the present invention on regulation of blood pressure were examined as follows. Animals were treated with compound B or compound D and RNA samples were prepared as described above in Example 4. […] Analysis of the relative level of gene expression was performed by quantitative PCR using a FASTSTART DNA MASTER SYBR GREEN I kit (Roche) and gene-specific primers, using a LIGHTCYCLER system (Roche), according to manufacturer's instructions. […]
The relative level of 18S ribosomal RNA gene expression was measured as a control. Quantitative PCR was performed using a QUANTITECT SYBR GREEN PCR kit (Qiagen) and gene-specific primers, using a LIGHTCYCLER system (Roche), according to manufacturer's instructions. […]

[2] = tested on: GluT-1; assay: GluT-1 protein levels in SCC-25 cells (Western blot); type: cell-based, Human; details: 10 and 25 μM, 16 hours, FIG. 1B
Method: Human SSC-25 (squamous cell carcinoma) or rat H9c2 (ventricular cardiomyocyte) cells were grown to confluence in 100 mm culture dishes at 37° C., 10% CO2 in DMEM with 10% fetal calf serum. Cells were then washed twice with PBS and incubated with vehicle control, compound D (10 and 25 μM), or compound C (5, 10, and 20 μM) for 16 hours. Plates were placed on ice, culture supernatant was removed, and lysis buffer-1 (LB-1: 10 mM Tris pH 7.4, 1 mM EDTA, 150 mM sodium chloride, 0.5% IGEPAL) was added. Cell lysates were harvested by scraping, incubated for 15 minutes on ice, and then centrifuged at 3000×g for 5 minutes at 4° C. The supernatant, which represents the cytosolic fraction, was collected and cytosolic proteins were separated under reducing conditions using SDS-polyacrylamide gel electrophoresis (SDS-PAGE) with equal amounts of protein loaded per lane.
SDS-PAGE was conducted at 150 V for 2 hours, after which the proteins were transferred to a PVDF membrane at 400 mA for 1.5 hours at 4° C. The membrane was incubated in blocking buffer for 2 hours or overnight and washed once with T-TBS prior to addition of anti-GluT-1 antibody (Alpha Diagnostics) diluted to working concentration in blocking buffer. […]

[3] = tested on: HIF-1α; assay: HIF-1α stabilization in cells, nuclear fraction Western blot; type: cell-based, Human; details: various cell types, overnight incubation, 20% O2; FIG. 12A
Method: Stabilization of HIFα using compounds and methods of the present invention was examined as follows. Human cells derived from adenovirus-transformed fetal kidney epithelium (293A), cervical epithelial adenocarcinoma (HeLa), hepatocellular carcinoma (Hep3B), squamous carcinoma (SSC-25), and lung fibroblast (HLF) (see, e.g., American Type Culture Collection, Manassas Va.; and Qbiogene, Carlsbad Calif.) were separately seeded into 100 mm culture dishes and grown at 37° C., 20% O2, 10% CO2 in media as follows: HeLa cells in Dulbecco's Modification of Eagle's Medium (DMEM), 2% fetal bovine serum (FBS); HLF cells in DMEM, 10%FBS; 293A cells in DMEM, 5%FBS; and Hep3B cells in Minimal Essential Medium (MEM), Earle's BSS (Mediatech Inc., Herndon Va.), 2 mM L-glutamine, 0.1 mM non-essential amino acids, 1 mM sodium pyruvate, 10% FBS. When cell layers reached confluence, the media was replaced with OPTI-MEM media (Invitrogen Life Technologies, Carlsbad Calif.) and cell layers were incubated for approximately 24 hours in 20% O2, 10% CO2 at 37° C. Compound of the invention (one of compounds B, F, G, and H) or DMSO (0.5 to 1%) was then added to existing medium, and incubation was continued overnight.
Following incubation, the media was removed, centrifuged, and stored for analysis. […]

Which results are given for `O=C(O)c1c[nH]c2c(ccc3cccnc32)c1=O` [compound D, 4-Oxo-1,4-dihydro-[1,10]phenanthroline-3-carboxylic acid]?
expression of the gene encoding iNOS [1]: increased; protein levels of GluT-1 [2]: increased; HIFα stabilization (Western blot) [3]: stabilized HIFα in a dose-dependent manner
